Measured values published in article PMC3440242 (Peptides, 2012).
Read-outs that look alike come from different tables or passages of the source. Each block holds one molecule with its values, some of them ahead of it.

Tests used:
Y2 receptor [1] = target: T1, Y2 receptor (Homo sapiens, UniProt P49146); settings: read-out: ic50, [^125I] hPYY(3-36) binding to particulate Y2 receptor; cited from earlier work
T1 sequence (P49146 1-381): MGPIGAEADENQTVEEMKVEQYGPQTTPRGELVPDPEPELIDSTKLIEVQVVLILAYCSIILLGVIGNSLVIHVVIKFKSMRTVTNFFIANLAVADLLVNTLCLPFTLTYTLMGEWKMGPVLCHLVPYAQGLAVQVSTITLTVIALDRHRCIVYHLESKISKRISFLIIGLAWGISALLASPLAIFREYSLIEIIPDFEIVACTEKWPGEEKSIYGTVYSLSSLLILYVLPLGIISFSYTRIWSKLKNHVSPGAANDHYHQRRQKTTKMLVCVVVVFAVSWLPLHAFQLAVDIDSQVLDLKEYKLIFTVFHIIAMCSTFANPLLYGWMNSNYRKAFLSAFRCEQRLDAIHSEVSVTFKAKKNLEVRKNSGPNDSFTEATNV

[2] = target: G-protein nucleotide sites (Gi α subunits) (Cricetulus griseus, UniProt Q60397); assay: ^35S-GTPγS binding to Y2-CHO particulates; settings: Y2-CHO cells
G-protein nucleotide sites (Gi α subunits), sequence (Q60397 2-354): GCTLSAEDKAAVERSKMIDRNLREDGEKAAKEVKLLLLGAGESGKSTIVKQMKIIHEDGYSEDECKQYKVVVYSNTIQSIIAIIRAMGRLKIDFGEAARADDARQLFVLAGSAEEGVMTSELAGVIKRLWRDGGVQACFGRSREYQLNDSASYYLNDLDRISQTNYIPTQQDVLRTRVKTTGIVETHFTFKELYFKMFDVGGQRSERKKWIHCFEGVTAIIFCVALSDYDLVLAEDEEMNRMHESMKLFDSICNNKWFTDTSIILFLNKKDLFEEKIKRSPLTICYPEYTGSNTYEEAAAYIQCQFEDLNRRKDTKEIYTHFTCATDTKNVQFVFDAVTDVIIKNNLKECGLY

CHO cells [3] = assay: Cell detachment, protein loss and lysis of CHO cells
CHO cells [4] = tested on: CHO cells
CHO cells [5] = tested on: CHO cells; remark: listed apart in the source
hY2-CHO receptor [6] = settings: read-out: Scatchard affinity / Kdiss, ref [37]; cited from earlier work
hY2-CHO receptor [7] = assay: Depletion of hY2-CHO surface receptors by agonists; type: cell-based, human; settings: exponential + linear model, four experiments
Y4 receptor = assay: Agonist binding to surface Y4 receptor in CHO monolayers after unmasking agent; type: cell-based; settings: 30 μM digitonin pretreatment, 20 min at 37 °C; 50 pM [^125I] hPP
[8] = stated without reference; cited from earlier work
[9] = tested on: G-protein nucleotide sites (Gi3 α subunit); type: cell-based
CHO cells [10] = assay: Permeabilization of CHO cells; settings: 20 min at 37 °C
Y1 receptor = assay: Agonist binding to surface Y1 receptor in CHO monolayers after unmasking agent; type: cell-based; settings: 30 μM digitonin pretreatment, 20 min at 37 °C; 50 pM [^125I] hNPY
guinea pig Y2 receptor = assay: Unmasking of surface guinea pig Y2 receptor in adherent CHO cells; type: cell-based; settings: 30 μM agent, 20 min at 37 °C, 50 pM [^125I] hPYY(3-36), at least three experiments
Y2 receptor [11] = target: T1, Y2 receptor; assay: Particulate Y2 agonist binding

Molecule: C[N+](C)(C)CCSS(C)(=O)=O [MTSET, 2-[trimethylammonium)ethyl] methanethiosulfonate]
IC50 (Y2 receptor [1]): 264 ± 27 µM

Molecule: Nc1nc2c(ncn2[C@@H]2O[C@H](COP(=O)(O)OP(=O)(O)OP(O)(O)=S)[C@@H](O)[C@H]2O)c(=O)[nH]1 [^35S-GTPγS, guanosine 5′-O-(3-thiotriphosphate]
total particulate nucleotide sites [2]: 32 ± 0.7 fmol/100,000 cells

Molecule: C[C@H](CCC(=O)NCCC[N+](C)(C)CCCS(=O)(=O)[O-])[C@H]1CC[C@H]2[C@@H]3[C@H](O)C[C@@H]4C[C@H](O)CC[C@]4(C)[C@H]3C[C@H](O)[C@]12C [CHAPS, 3-[(3-Cholamidopropyl)dimethylammonio]-1-propanesulfonate]
concentration above which CHO cells and particulates are lysed (CHO cells [3]): above 1 mM

permeabilization of CHO cells (in words) (CHO cells [4]): did not permeabilize CHO cells at 100 μM
Molecule: polyoxyethylene(20)sorbitan monooleate [Tween 80]

Molecule: C[C@H](CCC(=O)O)[C@H]1CC[C@H]2[C@@H]3[C@H](O)C[C@@H]4C[C@H](O)CC[C@]4(C)[C@H]3C[C@H](O)[C@]12C [cholate]
permeabilization of CHO cells (in words) (CHO cells [4]): did not permeabilize CHO cells at 100 μM
concentration above which CHO cells and particulates are lysed (CHO cells [5]): above 1 mM

Molecule: CCN1C(=O)C=CC1=O [NEM, N-Ethylmaleimide]
IC50 (Y2 receptor [1]): 146 ± 14 µM

% total depletion in component 1 (hY2-CHO receptor [7]; + 30 μM PAO): 15.6 ± 3.9%
K1 (exponential component) (hY2-CHO receptor [7]; + 30 μM PAO): 3.0 ± 0.75 nM
K2 (linear component) (hY2-CHO receptor [7]; + 30 μM PAO): 243 ± 15 nM
% total depletion in component 1 (hY2-CHO receptor [7]; without PAO): 32.8 ± 8.5 %
K1 (exponential component) (hY2-CHO receptor [7]; without PAO): 6.2 ± 1.6 nM
K2 (linear component) (hY2-CHO receptor [7]; without PAO): 153 ± 17 nM
Molecule: LRHYLNLLTRORY [AcLeu, human neuropeptide Y(24-36), acetyl-Leu(28, 31)]
Kd (hY2-CHO receptor [6]): 0.0005 µM

Molecule: C[C@@H]1CC[C@@]2(OC1)O[C@H]1[C@@H](O)[C@H]3[C@@H]4CC[C@H]5C[C@@H](O[C@@H]6O[C@H](CO)[C@H](O[C@@H]7O[C@H](CO)[C@@H](O)[C@H](O[C@@H]8OC[C@@H](O)[C@H](O)[C@H]8O)[C@H]7O[C@@H]7O[C@H](CO)[C@H](O)[C@H](O[C@@H]8O[C@H](CO)[C@@H](O)[C@H](O)[C@H]8O)[C@H]7O)[C@H](O)[C@H]6O)[C@H](O)C[C@]5(C)[C@H]4CC[C@]3(C)[C@H]1[C@@H]2C [digitonin]
effect on Y4-CHO surface sites (Y4 receptor): did not increase the Y1-CHO or Y4-CHO surface sites
critical micellar concentration [8]: ≥ 100 µM
digitonin range in which ^35S-GTPγS binding saturates [9]: 3 to 30 µM
increase of ^35S-GTPγS binding to intact CHO cells [9]: 10-15 fold
concentration at which permeabilization reached a plateau (CHO cells [10]; judged by labeling by ^35S-GTPγS): 20 µM
effect on Y1-CHO surface sites (Y1 receptor): did not increase the Y1-CHO or Y4-CHO surface sites
increase of labeling of adherent confluent Y2-CHO cells (guinea pig Y2 receptor): about 4 fold
concentration above which CHO cells and particulates are lysed (CHO cells [5]): above 1 mM
concentration above which protein leakage is observed (CHO cells [5]): above 30 μM
concentration at/above which cell detachment is found (CHO cells [5]): about 50 μM

Molecule: pertussis toxin: toxin used at 1 ng/ml for 21 h
^35S-GTPγS binding to Y2-CHO cells (in words) [9]: highly sensitive to cell pretreatment with pertussis toxin

Molecule: CCCCC[C@@H](O)[C@H]1C(=O)O[C@H](C)[C@@H](O)/C=C/C=C/C=C/C=C/C=C(\C)[C@@H](O)C[C@H](O)C[C@H](O)C[C@H](O)C[C@H](O)C[C@H](O)C[C@@H]1O [filipin III]
^35S-GTPγS binding to Y2-CHO cells (in words) [9]: highly variable
concentration range inducing permeabilization (CHO cells [10]; filipin III): 0.6 to 3 µM
effect on particulate Y2 agonist binding (in words) (Y2 receptor [11]): no loss of either particulate or surface Y2 sites
IC50 (Y2 receptor [11]; read-out: ic50, agonist binding to Y2-CHO particulates): ~100 µM
concentration at which cell lysis starts (CHO cells [5]): about 10 μM
concentration at/above which cell detachment is found (CHO cells [5]): above 15 μM
loss of mainly cytosolic protein (CHO cells [5]): about 40%
